Results reported in paper PMC8269107, “Lipidation of Temporin-1CEb Derivatives as a Tool for Activity Improvement, Pros and Cons of the Approach” (International Journal of Molecular Sciences, 2021).
Where a SMILES comes first, the peptide text is derived from it. [ ]: non-standard residue; d: D form. The star is where a group is joined. Lauroyl = CCCCCCCCCCCC(=O)*; Pentanoyl = CCCCC(=O)*; AEEA = NCCOCCOCC(=O)O; βAla = NCCC(=O)O

Legend:
[1] = Serum stability in 25% human serum (RP-UPLC); conditions: male, amount of the intact compound, after 5 h of incubation in 25% human serum, 37 °C
Method: At the beginning of the experiment, 25% human serum (human serum, from human male AB plasma, Sigma-Aldrich) was centrifuged at 12,000 rpm for 10 min in order to remove the excessive amount of lipids in the serum preparation, and the supernatant was collected and incubated at 37 °C for 15 min under shaking. The assay was initiated upon the addition of the peptide to the serum yielding a final peptide concentration of 75 µg/mL. The 50 µL aliquots of the incubated mixtures were taken at the following time intervals: 0, 30, 60, 120, 240 and 300 min. The aliquots were mixed with 50 µL of absolute ethanol, incubated on ice for 15 min to precipitate serum proteins and then centrifuged (12,000 rpm, 10 min). The supernatants were collected and lyophilized. Dry samples were further dissolved in 100 µL of HPLC-grade water and then analyzed. […]
RP-UPLC analysis was performed using Nexera system (Shimadzu Europe GmbH, Duisburg, Germany) with C12 Jupiter Proteo column (150 × 2 mm, 90Å, 4 micron) (Phenomenex, USA) applying a linear aqueous acetonitrile gradient 1–80%B in 20 min using solutions A (0.1% TFA in water) and B (0.1%TFA in 80% acetonitrile) with a flow rate 0.6 mL/min and detection at 220 nm. The quantity of the intact peptide at each time point was expressed as a percentage of the peak area with respect to time “zero” (100%).

[2] = ITC, binding to zwitterionic membrane; conditions: 25 °C; for pKITC: POPC LUVs
Method: The ITC experiments were performed according to the previously reported protocol in PBS (pH 7.4) at 25 °C using an AutoITC isothermal titration calorimeter (MicroCal Inc., Northampton, USA) with a 1.4491-mL sample and reference cells filled with distilled water. In each experiment, 29 injections of 10.02 µL each (2 µL for the first only) of a liposome solution at a concentration of 1.31 mM were added into a 0.05 mM and/or 0.1 mM peptide solution. An initial 2-μL injection was discarded from each dataset in order to remove the effect of titrant diffusion across the syringe tip during the equilibration process. Each injection lasted 20 s. The titrant was injected at 4 min intervals to ensure that the titration peak returned to the baseline before the next injection. To ensure a homogeneous mixing in the cell, the stirrer speed was kept constant at 300 rpm.
A complete binding of the peptide to lipid vesicles provides the possibility for determination of the total binding enthalpy (∆H) as well as a binding constant (Ka), reflecting the affinity of the lipopeptide to liposomes, stoichiometry of binding (n), that is, the number of phospholipids per peptide, by fitting the titration result data to one set of sites’ model using Origin 7 from MicroCal. Changes in entropy (∆S) and the Gibbs free energy (∆G) were calculated from Equation (1), where factor 55.5 is the molar concentration of water, R is the gas constant (1.986 cal·mol^−1·K^−1) and T is the absolute temperature:∆G = -RTln(55.5Ka) = ∆H-T∆S(1)
The liposomes for ITC experiments were made of POPC or POPG lipids. The lipids were dissolved in a chloroform:methanol (2:1; v/v) mixture, evaporated under nitrogen and desiccated under vacuum overnight to remove any residual solvents. Afterwards, the dry lipid film was resuspended in a phosphate buffer solution and shaken for 2 h at room temperature (phase transition point, Tm = −2 °C) to obtain multilamellar vesicles (MLVs). […]

[3] = system: S. aureus PCM 2054; format: cell-based, Staphylococcus aureus; conditions: S. aureus PCM 2054, Mueller-Hinton broth + 1% human serum
Method: Additionally, we performed a comparative analysis of MICs obtained for the tested compounds against S. aureus PCM2054 in two types of growth medium, i.e., the standard MHB and MHB supplemented with 1% human serum and in the absence of 1% serum. The assay was performed as described in 4.3.1.

[4] = system: S. aureus; test: LIVE/DEAD BacLight bacterial viability; format: cell-based, Staphylococcus aureus; conditions: 0.39-25 µg/mL, 3 and 6 h of co-incubation
Method: Evaluation of the bacterial viability in the presence or absence of the tested compounds was performed according to the protocols developed for the laboratory kit LIVE/DEAD ®® BacLight TM Bacterial Viability Kits (Molecular Probes Europe BV, Amsterdam, The Netherlands). Briefly, late log phase cultures of E. coli and S. aureus in Luria-Bertani broth were harvested by centrifugation at 4000× g, the supernatant was removed, and pellets were resuspended in sterile water solution of 0.85% NaCl. Again, bacterial cells were centrifuged under the same conditions. In order to remove traces of growth, the medium washing step was repeated twice. At the end, pellets were resuspended in a fresh sterile 0.85% NaCl solution and diluted, yielding suspensions of E. coli, containing about 2 × 10^8 CFU/mL, and S. aureus with about 2 × 10^7 CFU/mL. Subsequently, 90 µL of bacterial suspensions (E. coli or S. aureus, respectively) were transferred to 96-well microtiter plates and 10 µL of the tested peptides were added to final concentrations ranging from 0.39 µg/mL to 25 µg/mL. […] Fluorescence was read with excitation wavelength set at 485 nm and emission wavelengths set at 530 nm (for green dye) and 630 nm (red dye) by means of CLARIOstar®® plate reader (BMG LABTECH, Germany).

Row | Structure (SMILES) | remaining at 5 h, 75 µg/mL [1] | pKITC [2] | MIC [3] | binding constants (order of) ([2]; POPC vesicles) | relative viability of S. aureus (live/dead) [4]
1 | CCCCC(=O)NCCC(=O)N[C@@H](Cc1c[nH]cn1)C(=O)NCCOCCOCC(=O)N[C@H](C(=O)N[C@@H](CCCCN)C(=O)N[C@@H](CCCCN)C(=O)N[C@H](C(=O)N[C@@H](CC(C)C)C(=O)N[C@@H](CO)C(=O)N[C@@H](CCCCN)C(=O)N[C@H](C(=O)N[C@@H](CCCCN)C(=O)N[C@@H](CCCCN)C(=O)N[C@@H](CC(C)C)C(=O)N[C@@H](CC(C)C)C(N)=O)[C@@H](C)CC)[C@@H](C)CC)[C@@H](C)CC [C5-CAR-PEG-DK5] ({Pentanoyl-βAla}-H[AEEA]IKKILSKIKKLL-NH2) | 77% |  |  |  | 
2 | CCCCCCCCCCCC(=O)NCCC(=O)N[C@@H](Cc1c[nH]cn1)C(=O)NCCOCCOCC(=O)N[C@H](C(=O)N[C@@H](CCCCN)C(=O)N[C@@H](CCCCN)C(=O)N[C@H](C(=O)N[C@@H](CC(C)C)C(=O)N[C@@H](CO)C(=O)N[C@@H](CCCCN)C(=O)N[C@H](C(=O)N[C@@H](CCCCN)C(=O)N[C@@H](CCCCN)C(=O)N[C@@H](CC(C)C)C(=O)N[C@@H](CC(C)C)C(N)=O)[C@@H](C)CC)[C@@H](C)CC)[C@@H](C)CC [C12-CAR-PEG-DK5] ({Lauroyl-βAla}-H[AEEA]IKKILSKIKKLL-NH2) |  | 5.38 ± 0.14 |  |  | 
3 | CCCCC(=O)N[C@H](C(=O)N[C@@H](CCCCN)C(=O)N[C@@H](CCCCN)C(=O)N[C@H](C(=O)N[C@@H](CC(C)C)C(=O)N[C@@H](CO)C(=O)N[C@@H](CCCCN)C(=O)N[C@H](C(=O)N[C@@H](CCCCN)C(=O)N[C@@H](CCCCN)C(=O)N[C@@H](CC(C)C)C(=O)N[C@@H](CC(C)C)C(N)=O)[C@@H](C)CC)[C@@H](C)CC)[C@@H](C)CC [Compound C5-DK5] (Pentanoyl-IKKILSKIKKLL-NH2) | 46.2% |  | 25 µg/mL | either a lack of interactions or that the binding was too weak to be detectable by ITC | 
4 | CCCCCCCCCCCC(=O)N[C@H](C(=O)N[C@@H](CCCCN)C(=O)N[C@@H](CCCCN)C(=O)N[C@H](C(=O)N[C@@H](CC(C)C)C(=O)N[C@@H](CO)C(=O)N[C@@H](CCCCN)C(=O)N[C@H](C(=O)N[C@@H](CCCCN)C(=O)N[C@@H](CCCCN)C(=O)N[C@@H](CC(C)C)C(=O)N[C@@H](CC(C)C)C(N)=O)[C@@H](C)CC)[C@@H](C)CC)[C@@H](C)CC [Compound C12-DK5] (Lauroyl-IKKILSKIKKLL-NH2) |  | 4.40 ± 0.19 | 25 µg/mL |  | most active
